As a reminder, the IC50 is the concentration needed to halve the response being measured.

“And” between values parts separate entries of the source, which are not always exact repeats. Equal entries are not always repeated. Bounds are passed on as bounds.

The test system of data set [1] is L. braziliensis promastigotes. Description: In vitro activity against L. braziliensis promastigotes. The conditions noted are these: for IC50 / Emax: Leishmania braziliensis, L. braziliensis promastigotes, 48 h; for IC50: maximal concentration 100 μM; for Emax: NT = no significant inhibitory activity for the parasite to 100 M (printed) compared to DMSO group, read-out: Maximum Effect; for Selectivity: IC50 to L. braziliensis lower than IC50 to L. amazonensis: ratio of promastigote IC50 values. The class given is cell-based, Leishmania braziliensis. The procedure: (§1) L. braziliensis promastigotes (MHOM/BR/87/BA788) were obtained from Dra. Valéria de Matos Borges at the Gonçalo Moniz Research Center, Fiocruz_BA. L. amazonensis promastigotes (MHOM/BR/77/LTB0016) were obtained from Dr. Eduardo Caio Torres dos Santos at the Oswaldo Cruz Institute-Fiocruz_RJ. The parasites were maintained in vitro in Schneider’s medium supplemented with 10% FBS and 2% human urine at 27 °C in BOD incubator.
(§2) The parasites were maintained in vitro in Schneider’s medium supplemented with 10% FBS and 2% human urine. Novel bis-lawsone analog stock solutions and pentamidine (reference leishmanicidal drug) were prepared in DMSO immediately before use. The cytotoxicities of the bis-lawsone analogs and pentamidine against the promastigotes were determined. Stationary phase L. braziliensis and L. amazonensis promastigotes were plated in 96-well vessels (Nunc, Roskilde, Denmark) at 1 × 10^5 cells per well in Schneider’s medium supplemented with 10% FBS and 2% human urine. Each compound solution was added at increasing concentrations (0.1–100 mg to the extract and its phases or 0.1–100 µΜ to the isolates and pentamidine). The cells were also cultured in a medium free of compounds, a vehicle (basal growth control) or with DMSO 0.1% (vehicle control). After 48 h, the extracellular load for L. braziliensis and L. amazonensis promastigotes was estimated by counting the promastigotes in Schneider’s medium using a CELM automatic cell counter (model CC530, Barueri, Brazil). The data obtained from experiments were expressed as the mean ± S.E.M., and the significant differences between the treated and vehicle groups were evaluated using ANOVA and Dunnett post-hoc tests.

A short description of data set [2]: Cytotoxicity against host cells (MTT assay). The class given is cell-based. The note with it: mouse, J774 macrophage cell line; J774 macrophages, MTT assay, 48 h, maximal concentration 100 μM; read-out: LC50. On the procedure: (§3) The adherent-phenotype macrophage line was cultured in Dulbecco’s Modified Eagle’s medium (DMEM, Sigma, Dublin, Ireland) supplemented with 10% FBS at 37 °C, 95% humidity and 5% CO2.
(§4) To evaluate the cytotoxicity activity against the J774 cell line, the host cells were plated in 96-well vessels at 2 × 10^5 cells per well in a complete culture medium with 10% FBS at 37 °C. After 1 h, the wells were washed with HBSS to remove non-adherent cells, leaving approximately 1 × 10^5 adherent macrophages. The cells were cultured in DMEM complete medium supplemented with 10% FBS. The compounds and pentamidine were added at serial concentrations (0.1–100 µM). The cells were also cultured in media free from compounds, a vehicle (basal growth control) or media with DMSO 0.1% (vehicle control). The positive control (dead cells) was obtained through cellular lyses with 1% of Triton X-100 in DMEM complete medium. After 48 h, the cytotoxicity was evaluated using the MTT assay. The data obtained from the experiments were expressed as the mean ± S.E.M., and the significant differences between the treated and vehicle groups were evaluated using ANOVA and Dunnett post-hoc tests.
(In general: Tetrazolium dyes change colour on reduction, which living cells bring about.)

A further data set concerns J774 cell line. Description: Cytotoxicity against host cells (MTT assay). The format is cell-based. The note with it: for Effect on J774 cell line viability / cytotoxicity to the host cells (in words): 48 h of incubation, at 100 µM; for Maximum Cytotoxicity: J774 macrophages, MTT assay, 48 h, NT = no significant lethal activity to cell until 100 M (printed) compared to DMSO group. On the procedure:
as §3, §4

The subject of data set [3] is L. amazonensis promastigotes. Description: In vitro activity against L. amazonensis promastigotes. The format is cell-based. The note with it: Leishmania amazonensis, 48 h; for IC50: maximal concentration 100 μM; for Emax: up to 100 μM, read-out: Maximum Effect. The procedure:
as §1, §2

The next data set deals with Leishmania. Details: method as in PMID 15654435. The note with it: cited from earlier work.
The next data set has as its system L. braziliensis. Details: method as in PMID 15654435. The note with it: promastigotes; cited from earlier work.
In data set [4] the test system is L. amazonensis. Details: method as in PMID 15654435. The conditions noted are these: promastigotes; cited from earlier work.
The test system of another data set is promastigote forms. The conditions noted are these: stated as reason for choice of reference drug; no reference given; cited from earlier work.
For data set [5], the system named is L. amazonensis. Description: In vivo activity against Leishmania amazonensis in infected BALB/c mice. The note with it: 30 μmol/kg/day × 28 days, i.p.; for Parasite load in the draining lymph node / Parasite load in the infected ear: limiting-dilution assay. An excerpt: (§5) This study was approved (protocol no. 2013.02) by the Ethics Committee for Animal Experimentation of the Federal University of Alagoas (Brazil). All animals received humane care in compliance with the “Principles of laboratory animal care” formulated by the National Society for Medical Research and the “Guide for the care and use of laboratory animals” prepared by the National Academy of Sciences (Washington, DC, USA). Next, 1 × 10^5 stationary promastigotes (5 days of culture in Schneider’s medium) of L. amazonensis (MHOM/BR/77/LTB0016) were subcutaneously inoculated into the right ear dermis of 6-week-old female BALB/c mice weighing ca. 20 g. and were later intraperitoneally treated with 3a or glucantime at 30 μmol/kg × 28 days. The lesion size was measured using a paquimeter. The parasite loads of infected ears and draining lymph nodes were determined using a quantitative limiting-dilution assay. Complex toxicity was also evaluated through biochemistry dosages in plasma. The experimental data were expressed as the mean ± S.E.M., and the significant differences between the treated and vehicle groups were evaluated using ANOVA and Dunnett post-hoc tests.

A short description of data set [6]: In vivo toxicity (spleen weight, plasma biochemistry) in infected BALB/c mice. The note with it: BALB/c mice infected with L. amazonensis, 30 μmol/kg/day × 28 days, i.p.
Source text: as §5

For the compound `O=C1C(O)=C(C(C2=C(O)C(=O)c3ccccc3C2=O)c2ccc(F)cc2)C(=O)c2ccccc21` [Compound 3h, 3,3'-(4-Fluorophenylmethylene)-bis[2-hydroxy-1,4-naphthalenedione]], in [1], the IC50 came out at 0.8 ± 0.03 µM and the Emax turned out to be 88.7 ± 0.3%. In addition, the CC50 at 48 h in data set [2] is greater than 100 µM. Besides, in the data set with J774 cell line, the “Effect on J774 cell line viability / cytotoxicity to the host cells (in words)” value is reported as “without cytotoxicity”. In data set [3], the concentration for half-maximal inhibition (IC50) is 0.6 ± 0.2 µM and the Emax worked out at 51 ± 5.5%.

Regarding `COc1ccc(C(C2=C(O)C(=O)c3ccccc3C2=O)C2=C(O)C(=O)c3ccccc3C2=O)cc1` [Compound 3e, 3,3'-(4-Methoxyphenylmethylene)-bis[2-hydroxy-1,4-naphthalenedione]], in data set [1], the IC50 was 0.9 ± 0.04 µM, the Emax came out at 61.6 ± 7.5% and the “Selectivity: IC50 to L. braziliensis lower than IC50 to L. amazonensis” value is on record as 10 times. Moreover, the CC50 at 48 h in data set [2] was greater than 100 µM. For the same compound, the “Effect on J774 cell line viability / cytotoxicity to the host cells (in words)” value in the data set on J774 cell line is given as “without cytotoxicity”. In data set [3], the half-maximal inhibitory concentration (IC50) was greater than 100 µM and the Emax came out at 44.6 ± 2.4%.

In the case of `O=C1C(O)=C(C(C2=C(O)C(=O)c3ccccc3C2=O)c2ccc([N+](=O)[O-])cc2)C(=O)c2ccccc21` [Compound 3g, 3,3'-(4-Nitrophenylmethylene)-bis[2-hydroxy-1,4-naphthalenedione]], in [1], inhibition was half-maximal at 2.8 ± 0.1 µM (IC50) and the Emax was 91.7 ± 1.3%. Besides, in data set [2], the CC50 at 48 h is greater than 100 µM. Besides, in [3], the IC50 was determined as 7.7 ± 1.2 µM and the Emax stood at 55.6 ± 3.2%.

Consider `CCCCCC(C1=C(O)C(=O)c2ccccc2C1=O)C1=C(O)C(=O)c2ccccc2C1=O` [Compound 3b, 3,3'-(Hexylidene)-bis[2-hydroxy-1,4-naphthalenedione]], for which, in data set [1], the IC50 was 5.2 ± 0.1 µM and the Emax is 93 ± 0.1%. In addition, the CC50 at 48 h in data set [2] is greater than 100 µM. In addition, in the data set on J774 cell line, the “Effect on J774 cell line viability / cytotoxicity to the host cells (in words)” value was “without cytotoxicity”. Moreover, in data set [3], the IC50 turned out to be 5.2 ± 0.1 µM and the Emax is 57.2 ± 3.8%.

For the compound `CC(C)CCC1=C(O)C(=O)c2ccccc2C1=O` [dihydrolapachol], the “Antileishmanial activity (in words)” value in the data set on Leishmania is recorded as “significant activity”.

As to `O=C1C(O)=C(C(C2=C(O)C(=O)c3ccccc3C2=O)c2ccccc2)C(=O)c2ccccc21` [Compound 3d, 3,3'-(Phenylmethylene)-bis[2-hydroxy-1,4-naphthalenedione]], the IC50 in data set [1] was greater than 100 µM. Also, in [1] (until 100 µM), the “Activity against promastigote forms of L. braziliensis (in words)” value was “did not present activity”. Further, the CC50 at 48 h in data set [2] is greater than 100 µM. In data set [3], the 50% inhibitory concentration (IC50) worked out at 0.3 ± 0.1 µM and the Emax stood at 85 ± 3.8%.

Turning to `CC(=O)OC1=C(C=CC(C)C)C(=O)c2ccccc2C1=O` [isolapachol acetate], the concentration for half-maximal inhibition (IC50) is 3.4 µg/mL in the data set with L. braziliensis and 1.6 µg/mL in the data set on L. amazonensis [4].

Regarding `O=C1C(O)=C(C(C2=C(O)C(=O)c3ccccc3C2=O)c2ccc(O)cc2)C(=O)c2ccccc21` [Compound 3f, 3,3'-(4-Hydroxyphenylmethylene)-bis[2-hydroxy-1,4-naphthalenedione]], the results for the IC50 in data set [1] and in data set [3] were 38.7 ± 2 µM and 68.7 ± 15.1 µM, respectively. The Emax in data set [1] turned out to be 91.7 ± 0.3%; in [3], 55.4 ± 4.7%. For the same compound, the CC50 at 48 h in [2] is greater than 100 µM.

As for `CCC(CC)C(C1=C(O)C(=O)c2ccccc2C1=O)C1=C(O)C(=O)c2ccccc2C1=O` [Compound 3c, 3,3'-(2-Ethylbutylidene)-bis[2-hydroxy-1,4-naphthalenedione]], the half-inhibitory concentration (IC50) in data set [1] was 34.7 ± 4.3 µM; in [3] it was 0.4 ± 0.1 µM. Moreover, the Emax in data set [1] was determined as 90.4 ± 0.7%; in data set [3], 75.3 ± 1.3%. Moreover, in data set [2], the CC50 at 48 h came to 67.4 ± 2.1 µM. The “Maximum Cytotoxicity” value with J774 cell line was 71.7% ± 3.8% and 71.7 ± 3.8 %.

Regarding isolapachol, in the data set with Leishmania, the “Antileishmanial activity (in words)” value was “significant activity”.

As for `CC(C)=CCC1=C(O)C(=O)c2ccccc2C1=O` [Lapachol], the “Antileishmanial activity (in words)” value in the data set with Leishmania is reported as “significant activity”.

Regarding “meglumine antimoniate [glucantime, reference compound]”, the “Activity against promastigote forms (in words)” value in the data set on promastigote forms was “not active”. Moreover, in the data set on L. amazonensis [5], the “Parasite load in the draining lymph node” value is “did not decrease” and the “Parasite load in the infected ear” value is reported as “did not decrease”.

In the case of `O=C1C(O)=C(CC2=C(O)C(=O)c3ccccc3C2=O)C(=O)c2ccccc21` [Compound 3a, 3,3'-(Methylene)-bis[2-hydroxy-1,4-naphthalenedione]], in data set [1], the IC50 is 0.9 ± 0.08 µM, the Emax was 88.4 ± 0.9% and the “Selectivity: IC50 to L. braziliensis lower than IC50 to L. amazonensis” value came to 10 times. Further, in data set [6], the “Alanine aminotransferase (ALT) in plasma” value is on record as “nor altered” and the “Aspartate aminotransferase (AST) in plasma” value is on record as “nor altered”. The Spleen weight result in data set [6] (last day of treatment) was “neither induced a change”. Also, in the data set on L. amazonensis [5], the “Parasite load in the draining lymph node” value is “did not decrease” and the “Parasite load in the infected ear” value is listed as “did not decrease”. Also, the “Lesion size for the infected ear” value in the data set on L. amazonensis [5] (third week after the treatment began) is “decreased”. Besides, the CC50 at 48 h in data set [2] was greater than 100 µM. Further, in the data set with J774 cell line, the “Effect on J774 cell line viability / cytotoxicity to the host cells (in words)” value was “without cytotoxicity”. For the same compound, in data set [3], half-maximal inhibition (IC50) required 71 ± 1.1 µM and the Emax came out at 72.8 ± 1%.

In the case of `N=C(N)c1ccc(OCCCCCOc2ccc(C(=N)N)cc2)cc1` [Pentamidine, reference compound], the IC50 was 0.8 ± 0.06 µM in data set [1] and 2.3 ± 0.8 µM in [3]. Also, the Emax in [1] stood at 91 ± 0.1%; in [3], 85.4 ± 0.4%. The CC50 at 48 h in data set [2] came to 73 ± 6 µM. Moreover, the results for the “Maximum Cytotoxicity” value in the data set with J774 cell line and with J774 cell line (listed as pentamidine) were 78.0 ± 3.8 % and 78.0% ± 3.8%, respectively.

These data come from article PMC6271274, “Synthesis, Leishmanicidal Activity and Theoretical Evaluations of a Series of Substituted bis-2-Hydroxy-1,4-Naphthoquinones” (Molecules, 2014).
